Results as given in publication PMC8893300, “A Dynamic Mass Redistribution Assay for the Human Sweet Taste Receptor Uncovers G-Protein Dependent Biased Ligands” (Frontiers in Pharmacology, 2022).
Where two headings read alike, the source gives them in different places. Marks after values point to notes of the source that are not given here.

Target: T1, human sweet taste receptor (hT1R2/hT1R3) coupled to Gα15 (Homo sapiens, UniProt Q7RTX0+Q8TE23)
T1 construct: expressed in transfected cells
T1 sequence (Q8TE23 20-839): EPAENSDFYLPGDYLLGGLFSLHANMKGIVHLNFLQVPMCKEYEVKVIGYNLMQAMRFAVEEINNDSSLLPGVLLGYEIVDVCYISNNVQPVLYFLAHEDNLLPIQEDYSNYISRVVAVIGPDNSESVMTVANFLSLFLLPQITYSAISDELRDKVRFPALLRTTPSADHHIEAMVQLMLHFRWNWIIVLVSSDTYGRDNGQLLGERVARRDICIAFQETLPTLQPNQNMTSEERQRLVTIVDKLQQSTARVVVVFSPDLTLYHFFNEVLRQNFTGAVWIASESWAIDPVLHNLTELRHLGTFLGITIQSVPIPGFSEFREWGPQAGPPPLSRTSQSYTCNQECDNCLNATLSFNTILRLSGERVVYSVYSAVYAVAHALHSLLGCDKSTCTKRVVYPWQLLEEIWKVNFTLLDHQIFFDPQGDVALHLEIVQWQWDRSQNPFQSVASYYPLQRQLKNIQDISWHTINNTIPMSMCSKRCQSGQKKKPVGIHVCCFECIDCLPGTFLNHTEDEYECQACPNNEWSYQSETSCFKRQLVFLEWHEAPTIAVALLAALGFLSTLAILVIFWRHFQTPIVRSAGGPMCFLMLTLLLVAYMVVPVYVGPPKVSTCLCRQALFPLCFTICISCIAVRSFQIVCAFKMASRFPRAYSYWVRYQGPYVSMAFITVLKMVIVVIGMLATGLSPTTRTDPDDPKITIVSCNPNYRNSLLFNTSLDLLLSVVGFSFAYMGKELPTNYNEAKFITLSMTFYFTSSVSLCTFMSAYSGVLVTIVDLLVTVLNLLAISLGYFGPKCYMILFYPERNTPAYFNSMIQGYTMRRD
T1 sequence (Q7RTX0 21-852): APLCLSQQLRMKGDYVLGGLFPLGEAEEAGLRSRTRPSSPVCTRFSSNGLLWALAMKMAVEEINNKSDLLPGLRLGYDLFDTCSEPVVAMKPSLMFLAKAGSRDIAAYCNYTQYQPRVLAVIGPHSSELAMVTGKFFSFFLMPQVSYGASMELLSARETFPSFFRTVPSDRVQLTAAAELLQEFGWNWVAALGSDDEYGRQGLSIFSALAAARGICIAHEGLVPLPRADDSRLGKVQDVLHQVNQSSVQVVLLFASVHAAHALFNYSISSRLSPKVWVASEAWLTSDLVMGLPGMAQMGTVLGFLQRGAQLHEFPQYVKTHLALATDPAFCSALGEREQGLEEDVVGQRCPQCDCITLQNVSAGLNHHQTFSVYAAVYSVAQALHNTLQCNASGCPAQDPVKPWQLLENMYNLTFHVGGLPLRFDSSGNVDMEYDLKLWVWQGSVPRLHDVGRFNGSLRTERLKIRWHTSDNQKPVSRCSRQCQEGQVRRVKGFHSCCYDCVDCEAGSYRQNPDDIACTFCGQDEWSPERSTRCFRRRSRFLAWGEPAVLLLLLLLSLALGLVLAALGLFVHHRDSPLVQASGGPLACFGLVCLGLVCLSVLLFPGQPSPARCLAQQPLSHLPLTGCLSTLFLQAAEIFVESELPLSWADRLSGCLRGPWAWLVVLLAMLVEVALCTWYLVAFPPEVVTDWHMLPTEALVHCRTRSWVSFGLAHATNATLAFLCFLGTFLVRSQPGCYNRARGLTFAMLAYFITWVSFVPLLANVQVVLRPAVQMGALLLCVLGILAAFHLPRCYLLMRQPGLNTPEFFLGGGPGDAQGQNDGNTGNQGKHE
Assay: FLIPR calcium mobilization assay, R2/R3 U2OS cells transduced with Gα15 baculovirus
Type: cell-based
Details: for ΔlogR FLIPR Mean: FLIPR-Gα15, operational model, logR minus sucralose logR; for Activity in FLIPR assay Emax: Gα15, top asymptote of dose-response normalized to 1 mM sucralose; for EC50: R2/R3 U2OS cells expressing Gα15; for Bias factor: inverse log of ΔΔlogR, FLIPR-Gα15 vs DMR; for ΔΔlogR Mean: ΔlogR FLIPR-Gα15 minus ΔlogR DMR; for fold difference DMR EC50 vs FLIPR EC50 (more potent in FLIPR): DMR EC50 over FLIPR-Gα15 EC50

[1] = read-out: Activity in FLIPR assay EC50
[2] = read-out: Activity in FLIPR assay pEC50 (converted)

| ΔlogR FLIPR Mean | Activity in FLIPR assay Emax | EC50 [1] | EC50 [2] | Bias factor | ΔΔlogR Mean | fold difference DMR EC50 vs FLIPR EC50 (more potent in FLIPR) | SMILES |
| --- | --- | --- | --- | --- | --- | --- | --- |
| 1.65 | 116**** | 1.6 µM | 1.53 µM | 3.2 | 0.50 | – | COC(=O)[C@H](Cc1ccccc1)NC(=O)[C@H](CC(=O)O)NCCC(C)(C)C [Neotame] |
| 3.11 | 181**** | 0.07 µM | 0.0745 µM | 3.9 | 0.59 | about 10 times | CC(C)Oc1ccc(NC(=S)NCc2ccc[nH]2)cc1 [S819] |
| 2.52 | 177**** | 0.3 µM | 0.335 µM | 4.8 | 0.68 | about 10 times | CC(C)Oc1ccc(NC(=S)NCc2cccs2)cc1 [S5227] |
